tested on: maximal electroshock seizures (MES); experiment: antagonism of maximal electroshock seizures (MES) after oral administration; assay type: in vivo; conditions: limits in parentheses, read-out: MES-ED50 (effective dose in 50% of treated animals)
Method: The activity on the CNS of the compounds of the invention was evaluated on the basis of pharmacological methods, such as, for example, the antagonism of convulsions and lethality induced by intravenous injection of bicuculline in mice (Antiepileptic Drugs, D. M. Woodbury et al. eds., 2nd edition, Raven Press, New York, 1982), or the antagonism of maximal electroshock seizures (MES) (Woodbury, L. A. and Davenport, V. D., Arch. Int. Pharmacodyn. Ther. 92; 97-104, 1952).
The following table summarizes the activity data obtained by testing in the MES test a representative group of compounds of the invention in comparison with the respective 2-desmethyl related compounds known from WO 90/14334.
ED50 means effective dose in 50% of treated animals after per os (po) administration.

Compound | ED50 [mg/kg]
C[C@H](NCc1ccc(OCc2cccc(Cl)c2)cc1)C(N)=O [FCE 26193A, (S)-2-(4-(3-chlorobenzyloxy)benzylamino) propanamide, methanesulfonate] | 9.41
CC(C)(NCc1ccc(SCc2ccccc2)cc1)C(N)=O [FCE 29482A, 2-[(4-benzylsulfanyl)benzylamino]-2-methyl-propanamide, methanesulfonate] | 3.12
CC(C)(NCc1ccc(OCc2ccccc2F)cc1)C(N)=O.CS(=O)(=O)O [FCE 29484A, 2-[4-(2-fluorobenzyloxy)benzylamino]-2-methyl-propanamide, methanesulfonate] | 3.1
C[C@H](NCc1ccc(OCc2cccc(F)c2)cc1)C(N)=O [FCE 26743A, (S)-2-(4-(3-fluorobenzyloxy)benzylamino) propanamide, methanesulfonate] | 8.2
CC(C)(NCc1ccc(OCc2cccc(Cl)c2)cc1)C(N)=O [FCE 29644A, 2-[4-(3-chlorobenzyloxy)benzylamino]-2-methyl-propanamide, methanesulfonate] | 3.88
C[C@H](NCc1ccc(SCc2ccccc2)cc1)C(N)=O [FCE 26727A, (S)-2-(4-benzylsulfanyl)benzylamino) propanamide, methanesulfonate] | 12.7
CC(C)(NCc1ccc(OCc2ccc(F)cc2)cc1)C(N)=O.CS(=O)(=O)O [FCE 29645A, 2-[4-(4-fluorobenzyloxy)benzylamino]-2-methyl-propanamide, methanesulfonate] | 6.58
C[C@H](NCc1ccc(OCc2ccccc2F)cc1)C(N)=O [FCE 26742A, (S)-2-(4-(2-fluorobenzyloxy)benzylamino) propanamide, methanesulfonate] | 7.13
CNC(=O)[C@H](C)NCc1ccc(OCc2cccc(F)c2)cc1.CS(=O)(=O)O [FCE 28657A, (S)-2-(4-(3-fluorobenzyloxy)benzylamino)-N-methylpropanamide, methanesulfonate] | 9.35
CC(C)(NCc1ccc(OCc2cccc(F)c2)cc1)C(N)=O [FCE 29088A, 2-[4-(3-fluorobenzyloxy)benzylamino]-2-methyl-propanamide, methanesulfonate] | 4.4
C[C@H](NCc1ccc(OCc2ccc(F)cc2)cc1)C(N)=O [FCE 26998A, (S)-2-(4-(4-fluorobenzyloxy)benzylamino) propanamide, methanesulfonate] | 16.3
CNC(=O)C(C)(C)NCc1ccc(OCc2cccc(F)c2)cc1.CS(=O)(=O)O [FCE 29647A, 2-[4-(3-fluorobenzyloxy)benzylamino]-2-methyl-N-methyl-propanamide, methanesulfonate] | 4.34

Reference: US5945454A, “2-(4-substituted)-benzylamino-2-methyl-propanamide derivatives” (Pharmacia & Upjohn, S.P.A., priority 1995, dated 1999)
